According to PubChem BioAssay (NCI):
Values joined by “and” are separate entries in the source; they are usually repeats but may differ in a detail not shown here. Equal entries are not always repeated.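 Following 48 hours of exposure in 96-well plates, responses at five concentrations were used to interpolate endpoints linearly. Here, GI50 denotes the concentration required for 50% inhibition of growth. TGI is the concentration that stops growth completely.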

Experiments:
Test in all cases: NCI tumour cell line growth inhibition, 48 h
A498 renal = test system: A498 renal
HCT-116 colon = test system: HCT-116 colon
HOP-62 NSCLC = test system: HOP-62 NSCLC
K-562 leukemia = test system: K-562 leukemia
MALME-3M melanoma = test system: MALME-3M melanoma
MDA-MB-231 breast = test system: MDA-MB-231 breast
NCI-H460 lung = test system: NCI-H460 lung
PC-3 prostate = test system: PC-3 prostate
TK-10 renal = test system: TK-10 renal
UO-31 renal = test system: UO-31 renal

SMILES | GI50 (A498 renal) | TGI (A498 renal) | GI50 (HCT-116 colon) | TGI (HCT-116 colon) | GI50 (HOP-62 NSCLC) | TGI (HOP-62 NSCLC) | GI50 (K-562 leukemia) | TGI (K-562 leukemia) | GI50 (MALME-3M melanoma) | TGI (MALME-3M melanoma) | GI50 (MDA-MB-231 breast) | TGI (MDA-MB-231 breast) | GI50 (NCI-H460 lung) | TGI (NCI-H460 lung) | GI50 (PC-3 prostate) | TGI (PC-3 prostate) | GI50 (TK-10 renal) | TGI (TK-10 renal) | GI50 (UO-31 renal) | TGI (UO-31 renal)
COc1ccccc1-c1ccc2c(N)c(C(=O)c3ccc4c(c3)OCO4)sc2n1 | 2.39 µM | 13.8 µM | 3.68 µM | 15 µM | 3.52 µM | 14.7 µM | 3.74 µM | > 100 µM | 4.9 µM | 16 µM | 2.81 µM | 8.59 µM | 4.04 µM | 16.7 µM | 10.6 µM | 40.3 µM | 12.8 µM | 28.6 µM | 4.12 µM | 16.7 µM
CCN(CC)CCOc1ccc(NC(=O)C(C(C)C)N2C(=O)/C(=C/c3ccc(Br)cc3)SC2=S)cc1 (stereo not given) | 1.52 µM | 14.6 µM | 1.86 µM | 3.47 µM | 2.36 µM | 7.11 µM | 2.24 µM | 5.86 µM | 1.71 µM | 3.3 µM | 1.85 µM | 3.67 µM | 1.85 µM | 3.51 µM | 3.17 µM | 12.1 µM | 2.17 µM | 5.09 µM | 2.72 µM | 12.6 µM
Cc1cnc(-c2ccc(-c3ccc(NC(=O)Nc4cccc(C(F)(F)F)c4)cc3F)c3c2C(=O)NC3)[nH]1 | 0.115 µM | 3.13 µM | 0.548 µM | 23.8 µM | 3.55 µM | > 50 µM | 1.43 µM | 31.9 µM | 1.47 µM | 23.1 µM | 26 µM | > 57.3 µM | 0.304 µM | 26.8 µM | 15.7 µM | > 50.6 µM | 15.5 µM | > 58.5 µM | 3 µM | > 50.5 µM
Cc1cc2oc(=O)cc(OC/C=C3/CCC(=O)O3)c2cc1C | 2.14 µM | 12 µM | 2.72 µM | – | 12.1 µM | 26.4 µM | 8.23 µM | 34.1 µM | 2.39 µM | 7.62 µM | 7.71 µM | 21 µM | 6.6 µM | 32.5 µM | 1.74 µM | 11.4 µM | 2 µM | 8.34 µM | 1.49 µM | 4.88 µM
CCCCCCCCCCCCCC(=O)NO | – | 63.2 µM | – | > 94.9 µM | – | 34.6 µM | – | 34.8 µM | – | 83.8 µM | – | > 100 µM | – | 38.3 µM | – | 28.6 µM | – | 59.4 µM | – | 25.3 µM
O=c1oc2ccc(I)cc2c(=O)n1-c1ccc(I)cc1F | 0.166 µM | 0.546 µM | 0.472 µM | 2.27 µM | 2.36 µM | 9.46 µM | 0.436 µM | > 100 µM | 0.36 µM | 2.54 µM | 0.579 µM | 6.14 µM | 0.429 µM | 10.3 µM | 2.23 µM | 7.35 µM | 1.42 µM | 11.8 µM | 0.268 µM | 2.41 µM
Cn1c2ccccc2c2c(=O)n(CCCC(=O)NCCc3cnc[nH]3)c3c(-c4ccccc4)nnn3c21 | 7.58 µM | 15.2 µM | 5.95 µM | 13.8 µM | 7.67 µM | 16.9 µM | 8.9 µM | 27 µM | 7.55 µM | 16.7 µM | 9.27 µM | 18.6 µM | 10.9 µM | 24.3 µM | 9.01 µM | 20.1 µM | 4.8 µM | 11.5 µM | 7.46 µM | 14.8 µM
N#Cc1ccc(C(=O)c2cnn(-c3ccc(F)cc3)c2N)cc1 | > 25 µM | > 25 µM | > 25 µM | > 25 µM | > 25 µM | > 25 µM | > 25 µM | > 25 µM | > 25 µM | > 25 µM | > 23.3 µM | > 25 µM | > 25 µM | > 25 µM | > 25 µM | > 25 µM | > 25 µM | > 25 µM | > 25 µM | > 25 µM
O=C(Nc1cccc(-n2ccc3c(NC(=O)c4ccccc4)nccc32)c1)c1ccc(Cl)c(Cl)c1 | 0.13 µM | 0.735 µM | 0.0989 µM | 1.22 µM | 0.24 µM | 1.87 µM | 0.0551 µM | – | 0.242 µM | 2.27 µM | 0.302 µM | 1.34 µM | 0.158 µM | 1.08 µM | 0.0965 µM | 1.52 µM | 0.865 µM | 2.28 µM | 0.573 µM | 2.18 µM
O=C(O)C1C2C=CC(O2)C1C(=O)NCc1ccncc1 (stereo not given) | – | > 100 µM | – | > 100 µM | – | > 100 µM | – | > 100 µM | – | > 100 µM | – | > 100 µM | – | > 100 µM | – | > 100 µM | – | > 100 µM | – | > 100 µM
O=c1[nH][nH]c(=O)c2c(O)c(-c3ccccc3)ncc12 | 24.9 µM and 32.2 µM | 61.7 µM and 119 µM | 55 µM and 132 µM | 405 µM | 27.9 µM and 86.9 µM | 87.3 µM and 471 µM | 219 µM | > 1000 µM | 30.1 µM and 54.4 µM | 278 µM | 37.7 µM and 113 µM | 385 µM | 55.6 µM and 146 µM | 634 µM | 44.5 µM and 143 µM | 662 µM | 57 µM and 153 µM | 462 µM | 37.4 µM and 129 µM | 622 µM
COc1ccc(C2CC(c3ccc4ccccc4c3)=NN2c2nc(O)c(C3=c4cc(Cl)ccc4=NC3=O)s2)cc1 (stereo not given) | 0.0166 µM and < 0.005 µM | 0.0419 µM and < 0.005 µM | 0.0338 µM and < 0.005 µM | 0.122 µM and 0.107 µM | 0.025 µM and < 0.005 µM | – | 0.0371 µM and < 0.005 µM | 1.65 µM | 0.0182 µM and < 0.005 µM | 0.0363 µM and < 0.005 µM | 0.021 µM | 0.0462 µM | 0.0216 µM | 0.0472 µM | 0.0283 µM and < 0.005 µM | – | 0.0195 µM and < 0.005 µM | – | 0.0193 µM and < 0.005 µM | 0.0436 µM and < 0.005 µM
CN(CCCCCCCCNc1ccnc2ccccc12)Cc1ccc(-c2ccc(-c3ccc(C#N)cc3)s2)cc1 | 1.22 µM | 2.6 µM | 0.184 µM | 0.537 µM | 0.685 µM | 2.5 µM | 0.0172 µM | 0.107 µM | 0.903 µM | 2.21 µM | 1.46 µM | 3.06 µM | 0.367 µM | 1.25 µM | 0.766 µM | 2.3 µM | 1.57 µM | 3.18 µM | 1.23 µM | 2.57 µM
COc1ccccc1/C=C1\CCC(CN2CCOCC2)C1=O (stereo not given) | – | 32.4 µM | – | 22.9 µM | – | 50.2 µM | – | 10.3 µM | – | 23.7 µM | – | 11.5 µM | – | 36 µM | – | 30 µM | – | 12.5 µM | – | 31.4 µM
CCc1nc(N)nc(N)c1-c1ccc(N(C)Cc2ccccc2)c([N+](=O)[O-])c1 | – | 19.8 µM | – | 10 µM | – | 14.3 µM | – | 3.98 µM | – | 17.1 µM | – | 36.1 µM | – | 8.72 µM | – | 16.6 µM | – | 34.2 µM | – | 16 µM
Cc1c(C(=O)/C=C/c2ccc(Cl)cc2)nnn1-c1ccnc2c(C(F)(F)F)cccc12 | > 100 µM | > 100 µM | 25.6 µM | > 100 µM | 22 µM | 47.8 µM | 8.67 µM | > 100 µM | 26.8 µM | > 100 µM | 17.2 µM | 72.7 µM | 48.9 µM | > 100 µM | 26.1 µM | > 100 µM | 34.9 µM | > 100 µM | 33.5 µM | > 100 µM
CN(C)c1ccc(/C=N/n2c(CCCCc3n[nH]c(=S)n3/N=C/c3ccc(N(C)C)cc3)n[nH]c2=S)cc1 | > 100 µM | > 100 µM | > 100 µM | > 100 µM | 66.8 µM | > 100 µM | > 100 µM | > 100 µM | > 100 µM | > 100 µM | 41.3 µM | > 100 µM | > 100 µM | > 100 µM | > 100 µM | > 100 µM | > 100 µM | > 100 µM | > 100 µM | > 100 µM
COC1/C=C/OC2(C)Oc3c(C)c(O)c4c(O)c(c(/C=N/N(c5ccccc5)c5ccccc5)c(O)c4c3C2=O)NC(=O)C(C)=C/C=C/C(C)C(O)C(C)C(O)C(C)C(OC(C)=O)C1C (stereo not given) | 1.63 µM | 7.42 µM | 0.858 µM | 1.76 µM | 3.41 µM | 10.3 µM | 1.59 µM | 5.69 µM | 1.83 µM | 9.36 µM | 1.38 µM | 4.14 µM | 1.52 µM | 5.32 µM | 1.27 µM | 4.95 µM | 1.8 µM | 7.55 µM | 3.02 µM | 12 µM
